Experimental data published in patent publication US12091411B2, “IRAK degraders and uses thereof” (Kymera Therapeutics, Inc., priority 2022, dated 2024).
Like-named read-outs stand apart in the source and are kept apart here.

Target: T1, IRAK4 (Homo sapiens, UniProt Q9NWZ3)
T1 construct: Degradation of IRAK4 in OCI-LY10 was quantitatively measured using Meso Scale Discovery technology; endogenous in cells; host or cells: OCI-LY10
T1 sequence (Q9NWZ3 1-460): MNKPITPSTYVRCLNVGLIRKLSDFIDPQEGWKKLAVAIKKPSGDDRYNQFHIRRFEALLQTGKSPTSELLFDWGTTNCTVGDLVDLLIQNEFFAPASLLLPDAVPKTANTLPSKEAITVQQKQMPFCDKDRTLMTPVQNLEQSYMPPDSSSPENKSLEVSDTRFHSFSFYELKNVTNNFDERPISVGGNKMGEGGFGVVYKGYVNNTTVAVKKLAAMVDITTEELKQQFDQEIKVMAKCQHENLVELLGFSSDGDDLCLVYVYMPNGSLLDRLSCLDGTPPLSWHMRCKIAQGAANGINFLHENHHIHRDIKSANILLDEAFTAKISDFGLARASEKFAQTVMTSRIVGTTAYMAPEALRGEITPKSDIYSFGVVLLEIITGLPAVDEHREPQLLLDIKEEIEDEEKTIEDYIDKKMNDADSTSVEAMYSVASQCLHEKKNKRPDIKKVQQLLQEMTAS
Assay: IRAK4 MSD Degradation in OCI-LY10
Format: cell-based
Conditions: OCI-LY10 cells, MSD
Method in brief: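 DC50, from a three-parameter logistic fit and reported as letter bins A (<0.01 μM), B, C, D (>0.2 μM or not tested), reflects IRAK4 loss measured by MSD electrochemiluminescence in OCI-LY10 lysates. Treatment: 8 doses, 1:3 steps, top 1 to 10 μM, 4 to 24 h, 37 °C.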

[1] = 4 hrs incubation, read-out: IRAK4 degradation in OCI-LY10 at 4 hrs: DC50
[2] = 24 hrs incubation, read-out: IRAK4 degradation in OCI-LY10 at 24 hrs: DC50

| Compound | DC50 [1] [nM] | DC50 [2] [nM] |
| --- | --- | --- |
| Cn1c(=O)n(C2CCC(=O)NC2=O)c2cccc(C[C@@H]3CN(Cc4ccc(-n5cc(NC(=O)c6cnn7cccnc67)c(C(F)F)n5)cc4)CCO3)c21 (some centres unmarked) [I-392] | > 200 | > 200 |
| Cn1c(=O)n(C2CCC(=O)NC2=O)c2cccc(C[C@@H]3CN(C[C@H]4CC[C@H](n5cc(NC(=O)c6cnn7ccc(N8C[C@H]9C[C@@H]8CO9)nc67)c(C(F)F)n5)CC4)CCO3)c21 (some centres unmarked) [I-393] | > 200 | > 200 |
| Cn1c(=O)n(C2CCC(=O)NC2=O)c2cccc(C[C@@H]3CN(Cc4ccc(-n5cc(NC(=O)c6cnn7ccc(N8C[C@H]9C[C@@H]8CO9)nc67)c(C(F)F)n5)cc4)CCO3)c21 (some centres unmarked) [I-394] | > 200 | > 200 |
| Cn1c(=O)n(C2CCC(=O)NC2=O)c2cccc(CC[C@@H]3CN(C[C@H]4CC[C@H](n5cc(NC(=O)c6cnn7ccc(N8C[C@H]9C[C@@H]8CO9)nc67)c(C(F)F)n5)CC4)CCO3)c21 (some centres unmarked) [I-395] | > 200 | > 200 |
| Cn1c(=O)n(C2CCC(=O)NC2=O)c2cccc(CC[C@@H]3CN(Cc4ccc(-n5cc(NC(=O)c6cnn7ccc(N8C[C@H]9C[C@@H]8CO9)nc67)c(C(F)F)n5)cc4)CCO3)c21 (some centres unmarked) [I-396] | > 200 | > 200 |
| Cn1c(=O)n(C2CCC(=O)NC2=O)c2cccc(CC[C@@H]3CN(C[C@H]4CC[C@H](n5cc(NC(=O)c6cnn7cccnc67)c(C(F)F)n5)CC4)CCO3)c21 (some centres unmarked) [I-397] | > 200 | > 200 |
| Cn1c(=O)n(C2CCC(=O)NC2=O)c2cccc(CC[C@@H]3CN(Cc4ccc(-n5cc(NC(=O)c6cnn7cccnc67)c(C(F)F)n5)cc4)CCO3)c21 (some centres unmarked) [I-398] | > 200 | > 200 |
| Cn1c(=O)n(C2CCC(=O)NC2=O)c2cccc(N3CCC4(CC3)CN(Cc3ccc(-n5cc(NC(=O)c6cnn7cccnc67)c(C(F)F)n5)cc3)C4)c21 (centres unmarked) [I-399] | < 10 | > 200 |
| Cn1c(=O)n(C2CCC(=O)NC2=O)c2cccc(N3CC4(CCN(Cc5ccc(-n6cc(NC(=O)c7cnn8ccc(N9C[C@H]%10C[C@@H]9CO%10)nc78)c(C(F)F)n6)cc5)CC4)C3)c21 (some centres unmarked) [I-400] | 10 to 100 | > 200 |
| Cn1c(=O)n(C2CCC(=O)NC2=O)c2cccc(OC3CC4(CCN(Cc5ccc(-n6cc(NC(=O)c7cnn8ccc(N9C[C@H]%10C[C@@H]9CO%10)nc78)c(C(F)F)n6)cc5)CC4)C3)c21 (some centres unmarked) [I-401] | > 200 | > 200 |
| Cn1c(=O)n(C2CCC(=O)NC2=O)c2cccc(CN3CC4(CCN(Cc5ccc(-n6cc(NC(=O)c7cnn8ccc(N9C[C@H]%10C[C@@H]9CO%10)nc78)c(C(F)F)n6)cc5)CC4)C3)c21 (some centres unmarked) [I-402] | > 200 | > 200 |
| Cn1c(=O)n(C2CCC(=O)NC2=O)c2cccc(N3CCN(C[C@H]4CC[C@H](n5cc(NC(=O)c6cnn7cccnc67)c(C(F)F)n5)CC4)CC3)c21 (some centres unmarked) [I-403] | > 200 | > 200 |
| Cn1c(=O)n(C2CCC(=O)NC2=O)c2cccc(N3CCC4C(C3)OCCN4C[C@H]3CC[C@H](n4cc(NC(=O)c5cnn6cccnc56)c(C(F)F)n4)CC3)c21 (some centres unmarked) [I-404] | > 200 | > 200 |
| C[C@H]1CN(c2ccn3ncc(C(=O)Nc4cn([C@H]5CC[C@H](CN6CCN(CC#Cc7cccc8c7n(C)c(=O)n8C7CCC(=O)NC7=O)CC6)CC5)nc4C(F)F)c3n2)CCO1 (some centres unmarked) [I-405] | > 200 | > 200 |
| C[C@@H]1CN(c2ccn3ncc(C(=O)Nc4cn([C@H]5CC[C@H](CN6CCN(CC#Cc7cccc8c7n(C)c(=O)n8C7CCC(=O)NC7=O)CC6)CC5)nc4C(F)F)c3n2)CCO1 (some centres unmarked) [I-406] | > 200 | < 10 |
| Cn1c(=O)n(C2CCC(=O)NC2=O)c2cccc(C#CCN3CCN(C[C@H]4CC[C@H](n5cc(NC(=O)c6cnn7ccc(N8CCOC(C(F)F)C8)nc67)c(C(F)F)n5)CC4)CC3)c21 (some centres unmarked) [I-407] | > 200 | > 200 |
| Cn1c(=O)n(C2CCC(=O)NC2=O)c2cccc(C#CCN3CCN(C[C@H]4CC[C@H](n5cc(NC(=O)c6cnn7ccc(N8CCN(C(F)(F)F)CC8)nc67)c(C(F)F)n5)CC4)CC3)c21 (some centres unmarked) [I-408] | > 200 | > 200 |

| Compound | DC50 [1] [nM] | DC50 [2] [nM] |
| --- | --- | --- |
| Cn1c(=O)n(C2CCC(=O)NC2=O)c2cccc(C#CCN3CCN(C[C@H]4CC[C@H](n5cc(NC(=O)c6cnn7ccc(N8CCN(CC(F)F)CC8)nc67)c(C(F)F)n5)CC4)CC3)c21 (some centres unmarked) [I-409] | > 200 | > 200 |
| Cn1c(=O)n(C2CCC(=O)NC2=O)c2cccc(C#CCN3CCN(C[C@H]4CC[C@H](n5cc(NC(=O)c6cnn7ccc(N8CCN(CC(F)(F)F)CC8)nc67)c(C(F)F)n5)CC4)CC3)c21 (some centres unmarked) [I-410] | > 200 | > 200 |
| CN1CCN(c2ccn3ncc(C(=O)Nc4cn([C@H]5CC[C@H](CN6CCN(CC#Cc7cccc8c7n(C)c(=O)n8C7CCC(=O)NC7=O)CC6)CC5)nc4C(F)F)c3n2)CC1C(F)F (some centres unmarked) [I-411] | > 200 | > 200 |
| CN1CCN(c2ccn3ncc(C(=O)Nc4cn([C@H]5CC[C@H](CN6CCN(CC#Cc7cccc8c7n(C)c(=O)n8C7CCC(=O)NC7=O)CC6)CC5)nc4C(F)F)c3n2)CC1C(F)(F)F (some centres unmarked) [I-412] | > 200 | > 200 |
| CN1CCC(c2ccn3ncc(C(=O)Nc4cn([C@H]5CC[C@H](CN6CCN(CC#Cc7cccc8c7n(C)c(=O)n8C7CCC(=O)NC7=O)CC6)CC5)nc4C(F)F)c3n2)C(F)(F)C1 (some centres unmarked) [I-413] | > 200 | > 200 |
| Cn1c(=O)n(C2CCC(=O)NC2=O)c2cccc(C#CCN3CCN(C[C@H]4CC[C@H](n5cc(NC(=O)c6cnn7ccc(N8CC(F)(F)C8)nc67)c(C(F)F)n5)CC4)CC3)c21 (some centres unmarked) [I-414] | 100 to 200 | > 200 |
| Cn1c(=O)n(C2CCC(=O)NC2=O)c2cccc(-c3cc(CN4CCn5cc(-n6cc(NC(=O)c7cnn8cccnc78)c(C(F)F)n6)cc5C4)ncn3)c21 (centres unmarked) [I-415] | > 200 | > 200 |
| Cn1c(=O)n(C2CCC(=O)NC2=O)c2cccc(N3CCC(N4CCn5cc(-n6cc(NC(=O)c7cnn8cccnc78)c(C(F)F)n6)cc5C4)CC3)c21 (centres unmarked) [I-416] | > 200 | > 200 |
| Cn1c(=O)n(C2CCC(=O)NC2=O)c2cccc(-c3ccc(N4CCc5cc(-n6cc(NC(=O)c7cnn8cccnc78)c(C(F)F)n6)ccc5C4)nc3)c21 (centres unmarked) [I-417] | > 200 | > 200 |
| Cn1c(=O)n(C2CCC(=O)NC2=O)c2cccc(C#CCN3CCN(C[C@H]4CC[C@H](n5cc(NC(=O)c6cnn7ccc(N8CC[C@]9(CCOC9)C8)nc67)c(C(F)F)n5)CC4)CC3)c21 (some centres unmarked) [I-418] | 10 to 100 | > 200 |
| Cn1c(=O)n(C2CCC(=O)NC2=O)c2cccc(C#CCN3CCN(C[C@H]4CC[C@H](n5cc(NC(=O)c6cnn7ccc(N8CC[C@@]9(CCOC9)C8)nc67)c(C(F)F)n5)CC4)CC3)c21 (some centres unmarked) [I-419] | 10 to 100 | > 200 |
| Cn1c(=O)n(C2CCC(=O)NC2=O)c2cccc(C#CCOC3CCN([C@H]4CC[C@@H](n5cc(NC(=O)c6cnn7ccc(N8C[C@H]9C[C@@H]8CO9)nc67)c(C(F)F)n5)CC4)CC3)c21 (some centres unmarked) [I-420] | > 200 | > 200 |
| Cn1c(=O)n(C2CCC(=O)NC2=O)c2cccc(C#CCN3CCN([C@H]4CC[C@@H](n5cc(NC(=O)c6cnn7ccc(N8C[C@H]9C[C@@H]8CO9)nc67)c(C(F)F)n5)CC4)CC3)c21 (some centres unmarked) [I-421] | 10 to 100 | > 200 |
| Cn1c(=O)n(C2CCC(=O)NC2=O)c2cccc(N3CCC(N4CCN([C@H]5CC[C@@H](n6cc(NC(=O)c7cnn8ccc(N9C[C@H]%10C[C@@H]9CO%10)nc78)c(C(F)F)n6)CC5)CC4)CC3)c21 (some centres unmarked) [I-422] | > 200 | > 200 |
| Cn1c(=O)n(C2CCC(=O)NC2=O)c2cccc(C3CCN(C4CCN(C5CCC(n6cc(NC(=O)c7cnn8ccc(N9C[C@H]%10C[C@@H]9CO%10)nc78)c(C(F)F)n6)CC5)CC4)CC3)c21 (some centres unmarked) [I-423] | > 200 | > 200 |
| Cn1c(=O)n(C2CCC(=O)NC2=O)c2cccc(N3CCN([C@H]4CC[C@@H](n5cc(NC(=O)c6cnn7ccc(N8C[C@H]9C[C@@H]8CO9)nc67)c(C(F)F)n5)CC4)CC3)c21 (some centres unmarked) [I-424] | > 200 | > 200 |
| Cn1c(=O)n(C2CCC(=O)NC2=O)c2cccc(C#CCN3CCN(C[C@H]4CC[C@H](n5cc(NC(=O)c6cnn7ccc(C8CCOC8)nc67)c(C(F)F)n5)CC4)CC3)c21 (some centres unmarked) [I-426] | 10 to 100 | > 200 |
